Converted amounts (≈) assume the structure as drawn.
Tests used:
Type in all cases: functional
[1] = tested on: Streptococcus pyogenes; experiment: Antibacterial activity against Streptococcus pyogenes ATCC 12344 incubated for 18 to 24 hrs by CLSI based microdilution broth method; conditions: time 18-24 hrs
[2] = tested on: Enterococcus faecalis; experiment: Antibacterial activity against Enterococcus faecalis ATCC 19433 incubated for 18 to 24 hrs by CLSI based microdilution broth method; conditions: time 18-24 hrs
[3] = tested on: Acinetobacter baumannii; experiment: Antibacterial activity against Acinetobacter baumannii ATCC 17978 incubated for 18 to 24 hrs by CLSI based microdilution broth method; conditions: Acinetobacter baumannii, ATCC 17978; time 18-24 hrs
[4] = tested on: Pseudomonas aeruginosa; experiment: Antibacterial activity against Pseudomonas aeruginosa ATCC 27853 incubated for 18 to 24 hrs by CLSI based microdilution broth method; conditions: Pseudomonas aeruginosa, ATCC 27853; time 18-24 hrs
[5] = tested on: Bacillus subtilis; experiment: Antibacterial activity against Bacillus subtilis ATCC 6633 incubated for 18 to 24 hrs by CLSI based microdilution broth method; conditions: time 18-24 hrs
[6] = tested on: Escherichia coli; experiment: Antibacterial activity against Escherichia coli CCUGT incubated for 18 to 24 hrs by CLSI based microdilution broth method; conditions: Escherichia coli, CCUGT; time 18-24 hrs; read-out: MIC
[7] = tested on: Klebsiella pneumoniae; experiment: Antibacterial activity against Klebsiella pneumoniae ATCC 13833 incubated for 18 to 24 hrs by CLSI based microdilution broth method; conditions: Klebsiella pneumoniae, ATCC 13833; time 18-24 hrs; read-out: MIC
[8] = tested on: Staphylococcus aureus; experiment: Antibacterial activity against Staphylococcus aureus ATCC 25923 incubated for 18 to 24 hrs by CLSI based microdilution broth method; conditions: time 18-24 hrs

Compound | MIC [1] | MIC [2] | MIC [3] | MIC [4] | MIC [5] | MIC [6] | MIC [7] | MIC [8]
CCCCCCCCCC(=O)N[C@@H](Cc1c[nH]c2ccccc12)C(=O)N[C@H](CC(N)=O)C(=O)N[C@@H](CC(=O)O)C(=O)N[C@@H]1C(=O)NCC(=O)N[C@@H](CCCN)C(=O)N[C@@H](CC(=O)O)C(=O)N[C@H](C)C(=O)N[C@@H](CC(=O)O)C(=O)NCC(=O)N[C@H](CO)C(=O)N[C@@H]([C@H](C)CC(=O)O)C(=O)N[C@@H](CC(=O)c2ccccc2N)C(=O)O[C@@H]1C | 0.5 µg/mL (≈ 0.309 µM) | 1 µg/mL (≈ 0.617 µM) | – | – | 1 µg/mL (≈ 0.617 µM) | – | – | 0.12 µg/mL (≈ 0.074 µM)
CSCCNC(=N)NCCCCCCCCN(CCCCCCCCNC(=N)N)C(=O)N(CCCCCCCCNC(=N)N)CCCCCCCCNC(=N)NCCSC.O=C(O)C(F)(F)F | 1 µg/mL | 2 µg/mL | 16 µg/mL | 32 µg/mL | 1 µg/mL | 2 µg/mL | 4 µg/mL | 0.5 µg/mL
N=C(N)NCCCCCCCCCN(CCCCCCCCCNC(=N)NCC1CC1)C(=O)N(CCCCCCCCCNC(=N)N)CCCCCCCCCNC(=N)NCC1CC1.O=C(O)C(F)(F)F | 2 µg/mL | 4 µg/mL | 8 µg/mL | 16 µg/mL | 4 µg/mL | 8 µg/mL | 16 µg/mL | 4 µg/mL
CN[C@H](CC(C)C)C(=O)N[C@H]1C(=O)N[C@@H](CC(N)=O)C(=O)N[C@H]2C(=O)N[C@H]3C(=O)N[C@H](C(=O)N[C@H](C(=O)O)c4cc(O)cc(O)c4-c4cc3ccc4O)[C@H](O)c3ccc(c(Cl)c3)Oc3cc2cc(c3O[C@@H]2O[C@H](CO)[C@@H](O)[C@H](O)[C@H]2O[C@H]2C[C@](C)(N)[C@H](O)[C@H](C)O2)Oc2ccc(cc2Cl)[C@H]1O [VANCOMYCIN] | 1 µg/mL (≈ 0.69 µM) | 1 µg/mL (≈ 0.69 µM) | – | – | 0.5 µg/mL (≈ 0.345 µM) | – | – | –

The next lines start with the values.

MIC [1] | MIC [2] | MIC [3] | MIC [4] | MIC [5] | MIC [6] | MIC [7] | MIC [8] | Compound
1 µg/mL | 1 µg/mL | 8 µg/mL | 8 µg/mL | 1 µg/mL | 0.5 µg/mL | 1 µg/mL | 0.5 µg/mL | CCCNC(=N)NCCCCCCCCN(CCCCCCCCNC(=N)N)C(=O)N(CCCCCCCCNC(=N)N)CCCCCCCCNC(=N)NCCC.O=C(O)C(F)(F)F
4 µg/mL | 8 µg/mL | 64 µg/mL | 128 µg/mL | 4 µg/mL | 16 µg/mL | 16 µg/mL | 4 µg/mL | CNC(=O)NCCCCCCCCN(CCCCCCCCNC(=N)NCC1CC1)C(=O)N(CCCCCCCCNC(=N)NCC1CC1)CCCCCCCCNC(=O)NC.O=C(O)C(F)(F)F
1 µg/mL | 4 µg/mL | 32 µg/mL | 32 µg/mL | 1 µg/mL | 2 µg/mL | 2 µg/mL | 0.25 µg/mL | N=C(N)NCCCCCCN(CCCCCCCCNC(=N)NCC1CC1)C(=O)N(CCCCCCCCNC(=N)NCC1CC1)CCCCCCNC(=N)N.O=C(O)C(F)(F)F
1 µg/mL | 1 µg/mL | 4 µg/mL | 8 µg/mL | 1 µg/mL | 1 µg/mL | 1 µg/mL | 0.25 µg/mL | N=C(N)NCCCCCCCCN(CCCCCCCCNC(=N)NC1CCCC1)C(=O)N(CCCCCCCCNC(=N)N)CCCCCCCCNC(=N)NC1CCCC1.O=C(O)C(F)(F)F
8 µg/mL | 8 µg/mL | 64 µg/mL | 128 µg/mL | 32 µg/mL | 16 µg/mL | 16 µg/mL | 4 µg/mL | O=C(O)C(F)(F)F.[N-]=[N+]=NCCCCCCCCN(CCCCCCCCNC(=N)NCC1CC1)C(=O)N(CCCCCCCCN=[N+]=[N-])CCCCCCCCNC(=N)NCC1CC1
4 µg/mL | 4 µg/mL | 128 µg/mL | 64 µg/mL | 4 µg/mL | 8 µg/mL | 16 µg/mL | 2 µg/mL | CNC(=S)NCCCCCCCCN(CCCCCCCCNC(=N)NCC1CC1)C(=O)N(CCCCCCCCNC(=N)NCC1CC1)CCCCCCCCNC(=S)NC.O=C(O)C(F)(F)F
